# Source: patent US20240043928A1, “BIOMARKERS FOR MYELODYSPLASTIC SYNDROME (MDS) AND METHODS OF USING THE SAME” (Eisai R&D Management Co., Ltd., priority 2020, published 2024)
# Assay: Phase I study NCT02841540: treatment-related adverse events and dose-limiting toxicities
# Type: in vivo, human
# From the text: Patients were enrolled using a conventional 3+3 dose escalation phase I design, with escalations based on a modified Fibonacci sequence scheme (Storer Biometrics. 1989;45(3):925-937). Dose escalations continued until a dose level at which ≥2 patients of the 3-6 enrolled experienced a dose-limiting toxicity (DLT). Maximally tolerated dose (MTD) was defined as the highest dose at which no more than 1 out of 6 patients experienced a DLT. DLTs were defined as any of the following: any Grade 3 or greater study drug-related non-hematologic toxicity except for Grade 3 nausea, vomiting, fatigue, or diarrhea that resolved to Grade 1 or less within 1 week; failure to administer at least 70% of the protocol-specific dose; or prolonged myelosuppression with the persistence of Grade 4 cytopenia in the absence of persistent leukemia or blast increase 21 or more days after suspending dosing. DLTs were assessed during the first 28 days using National Cancer Institute (NCI) Common Toxicity Criteria for Adverse Events (CTCAE) version 4.03.
# The primary endpoints measured included occurrence of DLTs, the type and frequency of treatment-emergent adverse events (TEAEs), and serious adverse events (SAEs). Key secondary endpoints included drug pharmacokinetics (PK) and preliminary antitumor activity, such as the overall response rate (ORR), effect of drug therapy on transfusion requirements, and overall survival (OS). Biomarker analyses and drug pharmacodynamics (PD) were included as exploratory endpoints. […] In addition, a second schedule (Schedule II) of 21 days on therapy and a rest of 7 days without therapy was explored. […] However, when limited clinical activity was observed on Schedule I, Schedule II was introduced to test whether more prolonged spliceosome modulation would lead to higher clinical activity. Each treatment cycle was 28 days in length. Patients could continue treatment until disease progression or development of unacceptable toxicity.
# Eligibility criteria included normal vitamin A levels and visual acuity that corrected to 20/40 unless a cataract was present. Ophthalmologic evaluation, including fundoscopic imaging and visual evoked potentials, was performed during study screening and periodically throughout the duration of the trial.
# [1] = Schedule I, 1, 2, 3.5, & 5 mg QD, N = 25
smiles,measurement,setting,value
"C/C(=C\C=C\[C@@H](C)c1ccccn1)[C@H]1OC(=O)C[C@H](O)CC[C@@](C)(O)[C@@H](OC(=O)N2CCN(C)CC2)/C=C/[C@@H]1C [Compound 1, (2S,3S,4E,6S,7R,10R)-7,10-dihydroxy-3,7-dimethyl-12-oxo-2-[(2E,4E,6R)-6-(pyridine-2-yl)hepta-2,4-dien-2-yl]oxacyclododec-4-en-6-yl-4-methylpiperazine-1-carboxylate]",adverse event in a patient with SF3B1-mutant lower-risk MDS,"7 mg, Schedule I, first week of study therapy",developed pancytopenia and marrow aplasia
same,male share of subjects who reported grade 3 treatment related AEs,9 of the 12 subjects,75%
same,male share of subjects reporting treatment related AEs (all grades),45 of the 63 subjects,71%
same,"MTD (initially defined, not formally confirmed)",Schedule I,30 mg
same,recommended QD dose,Schedule I,30 mg per day
same,dose dependency in the rate of treatment related TEAEs (all grades),"Schedule I, 1 mg-40 mg",no obvious dose dependency
same,"Any TEAE (treatment-related, all grades)","Schedule I, 7 mg QD, N = 14",11 (79) n (%)
same,"Diarrhea (treatment-related TEAE, all grades)","Schedule I, 7 mg QD, N = 14",4 (29) n (%)
same,"Fatigue (treatment-related TEAE, all grades)","Schedule I, 7 mg QD, N = 14",2 (14) n (%)
same,"Nausea (treatment-related TEAE, all grades)","Schedule I, 7 mg QD, N = 14",4 (29) n (%)
same,"Vomiting (treatment-related TEAE, all grades)","Schedule I, 7 mg QD, N = 14",2 (14) n (%)
same,patients with DLT marrow aplasia,"Schedule I, 7 mg, lower-risk MDS and SF3B1 mutation",1 patient
same,"Any TEAE (treatment-related, all grades)","Schedule I, 10 mg QD, N = 7",3 (43) n (%)
same,"Diarrhea (treatment-related TEAE, all grades)","Schedule I, 10 mg QD, N = 7",2 (29) n (%)
same,"Fatigue (treatment-related TEAE, all grades)","Schedule I, 10 mg QD, N = 7",1 (14) n (%)
same,"Nausea (treatment-related TEAE, all grades)","Schedule I, 10 mg QD, N = 7",2 (29) n (%)
same,"Vomiting (treatment-related TEAE, all grades)","Schedule I, 10 mg QD, N = 7",2 (29) n (%)
same,"Any TEAE (treatment-related, all grades)","Schedule I, 14 mg QD, N = 5",5 (100) n (%)
same,"Diarrhea (treatment-related TEAE, all grades)","Schedule I, 14 mg QD, N = 5",5 (100) n (%)
same,"Fatigue (treatment-related TEAE, all grades)","Schedule I, 14 mg QD, N = 5",0 n (%)
same,"Nausea (treatment-related TEAE, all grades)","Schedule I, 14 mg QD, N = 5",1 (20) n (%)
same,"Vomiting (treatment-related TEAE, all grades)","Schedule I, 14 mg QD, N = 5",1 (20) n (%)
same,"Any TEAE (treatment-related, all grades)","Schedule I, 20 mg QD, N = 4",3 (75) n (%)
same,"Diarrhea (treatment-related TEAE, all grades)","Schedule I, 20 mg QD, N = 4",1 (25) n (%)
same,"Fatigue (treatment-related TEAE, all grades)","Schedule I, 20 mg QD, N = 4",2 (50) n (%)
same,"Nausea (treatment-related TEAE, all grades)","Schedule I, 20 mg QD, N = 4",2 (50) n (%)
same,"Vomiting (treatment-related TEAE, all grades)","Schedule I, 20 mg QD, N = 4",0 n (%)
same,"Any TEAE (treatment-related, all grades)","Schedule I, 30 mg QD, N = 4",4 (100) n (%)
same,"Diarrhea (treatment-related TEAE, all grades)","Schedule I, 30 mg QD, N = 4",3 (75) n (%)
same,"Fatigue (treatment-related TEAE, all grades)","Schedule I, 30 mg QD, N = 4",1 (25) n (%)
same,"Nausea (treatment-related TEAE, all grades)","Schedule I, 30 mg QD, N = 4",3 (75) n (%)
same,"Vomiting (treatment-related TEAE, all grades)","Schedule I, 30 mg QD, N = 4",0 n (%)
same,patients with DLT prolonged QTcF >500 msec (investigator-assessed),"Schedule I, 40 mg",2 out of 6
same,subjects reporting grade 3 AEs,"Schedule I, 40 mg",3 of 6
same,"Any TEAE (treatment-related, all grades)","Schedule I, 40 mg QD, N = 6",5 (83) n (%)
same,"Diarrhea (treatment-related TEAE, all grades)","Schedule I, 40 mg QD, N = 6",5 (83) n (%)
same,"Fatigue (treatment-related TEAE, all grades)","Schedule I, 40 mg QD, N = 6",2 (33) n (%)
same,"Nausea (treatment-related TEAE, all grades)","Schedule I, 40 mg QD, N = 6",3 (50) n (%)
same,"Vomiting (treatment-related TEAE, all grades)","Schedule I, 40 mg QD, N = 6",3 (50) n (%)
same,subjects reporting a treatment related TEAE,"Schedule I, 40 mg, N=6",83%
same,"Any TEAE (treatment-related, all grades)",[1],19 (76) n (%)
same,"Diarrhea (treatment-related TEAE, all grades)",[1],7 (28) n (%)
same,"Fatigue (treatment-related TEAE, all grades)",[1],3 (12) n (%)
same,"Nausea (treatment-related TEAE, all grades)",[1],3 (12) n (%)
same,"Vomiting (treatment-related TEAE, all grades)",[1],1 (4) n (%)
same,Anemia (Grade 3 or 4 treatment-related TEAE),"Schedule I, N = 65",4 (6) n (%)
same,ECG QTcF prolonged (Grade 3 or 4 treatment-related TEAE),"Schedule I, N = 65",2 (3) n (%)
same,Fatigue (Grade 3 or 4 treatment-related TEAE),"Schedule I, N = 65",2 (3) n (%)
same,Hypophosphatemia (Grade 3 or 4 treatment-related TEAE),"Schedule I, N = 65",0 n (%)
same,Nausea (Grade 3 or 4 treatment-related TEAE),"Schedule I, N = 65",0 n (%)
same,Platelet count decreased (Grade 3 or 4 treatment-related TEAE),"Schedule I, N = 65",2 (3) n (%)
same,Sinus bradycardia (Grade 3 or 4 treatment-related TEAE),"Schedule I, N = 65",0 n (%)
same,"Any TEAE (treatment-related, all grades)","Schedule I, Total, N = 65",50 (77) n (%)
same,"Diarrhea (treatment-related TEAE, all grades)","Schedule I, Total, N = 65",27 (42) n (%)
same,"Fatigue (treatment-related TEAE, all grades)","Schedule I, Total, N = 65",11 (17) n (%)
same,"Nausea (treatment-related TEAE, all grades)","Schedule I, Total, N = 65",18 (28) n (%)
same,"Vomiting (treatment-related TEAE, all grades)","Schedule I, Total, N = 65",9 (14) n (%)
same,"diarrhea, treatment-related TEAE","Schedule I, all patients",42%
same,"fatigue, treatment-related TEAE","Schedule I, all patients",17%
same,"nausea, treatment-related TEAE","Schedule I, all patients",28%
same,"vomiting, treatment-related TEAE","Schedule I, all patients",14%
same,subjects reporting a treatment related TEAE,"Schedule I, lowest combined dose level (1, 2, 3.5 and 5 mg, N=25)",76%
same,"MTD (initially defined, not formally confirmed)",Schedule II,14 mg
same,recommended QD dose,Schedule II,14 mg per day
